The target of data set [1] is T1, recombinant human core RAG1 (AA387-1011)/core RAG2 (AA1-387) in the presence of HMGB1 (Homo sapiens, UniProt P15918+P55895).
T1 construct: made in house; host or cells: RAG1/RAG2 co-expressed in Expi293F GnTI human cells; HMGB1 in E. coli BL21DE3
T1 sequence (P15918 387-1011): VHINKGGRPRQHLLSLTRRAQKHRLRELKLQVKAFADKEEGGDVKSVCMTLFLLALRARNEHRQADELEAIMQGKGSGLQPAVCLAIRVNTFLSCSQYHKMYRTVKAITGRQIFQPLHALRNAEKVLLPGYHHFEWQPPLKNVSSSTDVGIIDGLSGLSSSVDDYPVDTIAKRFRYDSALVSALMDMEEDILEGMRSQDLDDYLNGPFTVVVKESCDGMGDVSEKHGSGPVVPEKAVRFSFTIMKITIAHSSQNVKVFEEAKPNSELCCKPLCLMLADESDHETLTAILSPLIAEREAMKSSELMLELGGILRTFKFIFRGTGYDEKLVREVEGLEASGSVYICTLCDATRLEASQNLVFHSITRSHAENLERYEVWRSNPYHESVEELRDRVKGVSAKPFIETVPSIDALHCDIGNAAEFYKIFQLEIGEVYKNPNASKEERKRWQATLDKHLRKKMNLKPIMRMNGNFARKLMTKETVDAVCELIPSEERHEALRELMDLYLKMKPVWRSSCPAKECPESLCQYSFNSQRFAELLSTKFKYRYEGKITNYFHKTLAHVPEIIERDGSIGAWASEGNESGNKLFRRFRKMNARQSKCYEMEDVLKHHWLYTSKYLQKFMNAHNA
T1 sequence (P55895 1-387): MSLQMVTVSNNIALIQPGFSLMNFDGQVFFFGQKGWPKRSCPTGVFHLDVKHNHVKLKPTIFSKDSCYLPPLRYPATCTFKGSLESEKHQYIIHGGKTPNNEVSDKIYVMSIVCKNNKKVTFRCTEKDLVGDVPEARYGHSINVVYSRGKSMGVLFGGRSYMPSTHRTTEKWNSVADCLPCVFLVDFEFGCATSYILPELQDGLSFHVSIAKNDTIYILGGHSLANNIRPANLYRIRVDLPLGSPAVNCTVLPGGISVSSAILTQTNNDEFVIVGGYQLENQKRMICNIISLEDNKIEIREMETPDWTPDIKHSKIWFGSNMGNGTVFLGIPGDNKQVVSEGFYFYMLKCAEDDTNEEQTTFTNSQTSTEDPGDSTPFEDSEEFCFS
In words: Biochemical RAG DNA cleavage assay (gel-based, dsDNA 12RSS/23RSS substrate). To be noted: 25 nM RAG1-RAG2, 575 nM HMGB1, 10 nM dsDNA, 5 mM MgCl2, 1 h 37°C, no serum. The source says: To directly observe the potential inhibition of RAG1/RAG2, we measured the effect of INSTIs on DNA cleavage by RAG1/RAG2 in the presence of HMGB1. This biochemical system utilizes pre-assembled recombinant human core RAG1 (AA387-1011)/core RAG2 (AA1-387) in the presence of excess truncated HMGB1 (AA1-163) and a linear dsDNA RSS substrate, using gel electrophoresis and a fluorescent dye to monitor cleavage products (Fig. 2A) ([24]). The dsDNA RSS substrate, containing both the 12RSS and 23RSS, was designed to have the different cleavage products resolved via gel electrophoresis. RAG1/RAG2 can singly cleave either the 12RSS or the 23RSS, or both, leading to potentially five different products in the reaction (Fig. 2B). HMGB1 orients RAG1/RAG2 for proper binding to the RSS substrate ([16]). We quantified the activity of RAG as the percentage of substrate conversion to a specific cleaved product, as separated by agarose gel electrophoresis and determined by the DNA-binding fluorescent dye. With the 569-bp substrate, a single cleavage of the 12RSS results in a 492-bp dsDNA and a 77-bp hairpin. Cleavage of the 23RSS alone produces a 433-bp dsDNA and a 136-bp hairpin. Successful cleavage of both RSSs results in a 356-bp dsDNA and both of the 77- and 136-bp hairpins. For the RAG activity analysis, we measured the amount of double cleaved product (356 bp) in relation to the amount of substrate (569 bp) at the end of the reaction. The optimal concentrations of RAG1/RAG2, HMGB1, and MgCl2 were determined through titration (Fig. S2). Because there is no direct RAG1/RAG2 inhibitor previously characterized, we used suramin, a polyanionic compound commonly used as a non-specific inhibitor for DNA/RNA binding or processing proteins as a control for inhibition ([25], [26]).
Prior to the cleavage assay, compounds at the designated concentrations were spotted into 96-well plates using the Tecan Digital D300e (Tecan, Mannedorf, Switzerland). RAG1/RAG2 was incubated with HMGB1 and MgCl2 on ice for at least 15 min in a reaction buffer (25-mM 3-(N-morpholino)propanesulfonic acid [MOPS], pH 7.0, 50-mM KCl, and 2-mM DTT). After the initial incubation, the enzyme solution was added to the compound plates and incubated for an additional 15 min at room temperature. dsDNA substrate in reaction buffer was added to the plates to initiate the reaction. The final conditions of the reaction are 25-nM RAG1–RAG2 complex, 575-nM HMGB1, 10-nM dsDNA substrate, and 5-mM MgCl2. After 1 h at 37°C, reactions were quenched by the addition of final concentrations of 0.19% SDS, 45.5-µg/mL Proteinase K, and 60-mM EDTA.
Glycerol was added to a final concentration of 7.6% in each sample, and samples were loaded onto non-denaturing 6% Tris–borate–EDTA (TBE) gels in 1× TBE buffer. The samples were run at 100 V for 1.5 h, and gels were stained with 1× SYBR Gold in 1× TBE for 20 min. The stained gels were imaged with an Amersham Typhoon Biomolecular Imager.
The gel images were analyzed using ImageQuant software (Cytiva). The densities of the 569-bp-length substrate and fully cleaved 356-bp-length product were quantified. The product density was divided by the sum of substrate and product bands to obtain a percent product value. These calculated values were subtracted from a negative control (pre-quenched reaction where EDTA was added before reaction was initiated) and then normalized to the DMSO-treated control. The normalized data were plotted against concentration using GraphPad Prism (version 9.3; GraphPad Software, San Diego, CA, USA).

Data set [2] in a line: 5-day cytotoxicity assay with Cell Titer Glo readout, GALPC3. Format: cell-based. To be noted: human. The text has this: (§1) Supplemental Table S2. CC50 values for INSTIs in 5- day cytotoxicity as says with Cell Titer
(§2) Expi293F GALPC3 GALHEP HUH7 MRC5 MT4 PBMC PBMC
(§3) Kidney Prostate Hepatoma Hepatoma Lung T-cell line Primary Primary
(§4) (embryonic) cancer cell cell line cell line fibroblast cells
(In general: ATP-based viability assays read luminescence as a measure of living cells.)

Data set [3] is described as follows: 5-day cytotoxicity assay with Cell Titer Glo readout, GALHEPG2. Format: cell-based. To be noted: human.
Description: as §1, §2, §3, §4

The nature of data set [4]: 5-day cytotoxicity assay with Cell Titer Glo readout, HUH7. Type of data set: cell-based. The conditions noted are these: human.
Description: as §1, §2, §3, §4

Data set [5] is described as follows: 5-day cytotoxicity assay with Cell Titer Glo readout, MRC5. To be noted: human. Type of data set: cell-based.
Description: as §1, §2, §3, §4

Data set [6] is described as follows: 5-day cytotoxicity assay with Cell Titer Glo readout, MT4. To be noted: human. Type of data set: cell-based.
Description: as §1, §2, §3, §4

A short description of data set [7]: 5-day cytotoxicity assay with Cell Titer Glo readout, PBMC. Type of data set: cell-based. The conditions noted are these: CC50.
Description: as §1, §2, §3, §4

A further data set concerns PBMC primary cells. Described as above. Format: cell-based. To be noted: 5 day.
Description: as §1, §2, §3, §4

By IC50 is commonly meant the concentration that gives 50% inhibition. What is called CC50 is the concentration that lowers cell viability or growth by half. A lower CC50 goes with harm at low concentration.

In the case of `Cc1ccc(C(=O)Nc2ccc(S(=O)(=O)O)c3cc(S(=O)(=O)O)cc(S(=O)(=O)O)c23)cc1NC(=O)c1cccc(NC(=O)Nc2cccc(C(=O)Nc3cc(C(=O)Nc4ccc(S(=O)(=O)O)c5cc(S(=O)(=O)O)cc(S(=O)(=O)O)c45)ccc3C)c2)c1` [Suramin], in data set [1], the IC50 turned out to be 4500 ± 400 nM.

`COc1ccc(C[C@H](N)C(=O)N[C@H]2[C@@H](O)[C@H](n3cnc4c(N(C)C)ncnc43)O[C@@H]2CO)cc1` [Puromycin]: the CC50 at 5 day in data set [2] came out at 390 nM; in data set [3], 410 nM; in data set [4], 320 nM; in data set [5], 310 nM; in data set [6], 210 nM; in data set [7] it was 540 nM. In the data set with PBMC primary cells, this compound had a CC50 of 500 nM.

The values are drawn from publication PMC11705955, “Lack of activity of HIV-1 integrase strand-transfer inhibitors on recombinase activating gene (RAG) activity at clinically relevant concentrations” (Microbiology Spectrum, 2024).
